Laboratory results as given in publication PMC8913746, “An open-like conformation of the sigma-1 receptor reveals its ligand entry pathway” (Nature Communications, 2022).
Positions count from the first letter of the chain named. Values joined by “and” are separate entries in the source; they are usually repeats but may differ in a detail not shown here. Equal entries are not always repeated.

Key:
xlσ1R-C179/C203 = target: T1, xlσ1R-C179/C203 (Xenopus laevis, UniProt Q6DCU6, L179C/Y203C); experiment: ITC binding of PRE084 to xlσ1R-C179/C203 (disulfide oxidation / re-reduction); conditions: ITC; for number of available binding sites per protomer (stoichiometry): mean ± SD
T1 construct: The gene encoding the full-length wild-type σ1R from Xenopus laevis; hemagglutinin signal peptide (N); decahistidine (His10) (N); TEV protease recognition site (N); made in house; host or cells: Pichia pastoris GS115
T1 sequence (Q6DCU6 1-221 L179C/Y203C): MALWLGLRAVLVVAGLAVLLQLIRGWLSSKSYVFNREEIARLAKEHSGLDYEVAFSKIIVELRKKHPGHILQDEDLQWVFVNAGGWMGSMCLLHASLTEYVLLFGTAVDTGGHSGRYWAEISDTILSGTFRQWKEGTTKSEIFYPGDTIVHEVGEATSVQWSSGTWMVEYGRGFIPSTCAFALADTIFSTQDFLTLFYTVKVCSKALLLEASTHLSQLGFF

xlσ1R-C179 = target: T2, xlσ1R-C179 (Xenopus laevis, UniProt Q6DCU6, L179C); experiment: ITC binding of PRE084 to xlσ1R-C179 before/after mPEG-Mal-5K modification; conditions: for C179 stoichiometry, Before modification / number of available binding sites per protomer (stoichiometry) / C179 stoichiometry, After modification: ITC; for number of available binding sites per protomer (stoichiometry): mean ± SD; for C179 stoichiometry, After modification: mPEG-Mal-5K
T2 construct: The gene encoding the full-length wild-type σ1R from Xenopus laevis; hemagglutinin signal peptide (N); decahistidine (His10) (N); TEV protease recognition site (N); made in house; host or cells: Pichia pastoris GS115
T2 sequence (Q6DCU6 1-221 L179C): T1 sequence (Q6DCU6 1-221 L179C/Y203C) with C203Y

xlσ1R-C203 = target: T3, xlσ1R-C203 (Xenopus laevis, UniProt Q6DCU6, Y203C); experiment: ITC binding of PRE084 to xlσ1R-C203 before/after mPEG-Mal-5K modification; conditions: for number of available binding sites per protomer (stoichiometry): mean ± SD; for C203 stoichiometry, After modification: mPEG-Mal-5K
T3 construct: The gene encoding the full-length wild-type σ1R from Xenopus laevis; hemagglutinin signal peptide (N); decahistidine (His10) (N); TEV protease recognition site (N); made in house; host or cells: Pichia pastoris GS115
T3 sequence (Q6DCU6 1-221 Y203C): T1 sequence (Q6DCU6 1-221 L179C/Y203C) with C179L

[1] = Mean of repeats (source data Fig. 4b)
[2] = individual repeats (source data Fig. 4b)
[3] = Mean of repeats (source data Fig. 4e)
[4] = individual repeats (source data Fig. 4e)
[5] = ITC, individual repeats (source data Fig. 4e)

O=C(OCCN1CCOCC1)C1(c2ccccc2)CCCCC1 [PRE084, [2-(morpholin-4-yl)ethyl] 1-phenylcyclohexane-1-carboxylate]
increase of Kd after oxidation compared to before oxidation (xlσ1R-C179/C203): ~ 9 fold
C179/C203 stoichiometry, After oxidation (xlσ1R-C179/C203; [1]): 0.1833
C179/C203 stoichiometry, Before oxidation (xlσ1R-C179/C203; [1]): 0.9178
C179/C203 stoichiometry, Re-reduction (xlσ1R-C179/C203; [1]): 0.5202
number of available binding sites per protomer (stoichiometry) (xlσ1R-C179/C203; after oxidation (disulfide formed)): 0.18 ± 0.02
number of available binding sites per protomer (stoichiometry) (xlσ1R-C179/C203; before oxidation): 0.92 ± 0.01
C179/C203 stoichiometry, After oxidation (xlσ1R-C179/C203; [2]): 0.179 and 0.210 and 0.161
C179/C203 stoichiometry, Before oxidation (xlσ1R-C179/C203; [2]): 0.933 and 0.929 and 0.922 and 0.901 and 0.904
C179/C203 stoichiometry, Re-reduction (xlσ1R-C179/C203; [2]): 0.502 and 0.537 and 0.513 and 0.529
number of available binding sites per protomer (stoichiometry) (xlσ1R-C179/C203; oxidized sample re-reduced with β-mercaptoethanol): 0.52 ± 0.02
C179 stoichiometry, Before modification (xlσ1R-C179; [3]): 0.8482
number of available binding sites per protomer (stoichiometry) (xlσ1R-C179; after mPEG-Mal-5K modification): 0.48 ± 0.07
number of available binding sites per protomer (stoichiometry) (xlσ1R-C179; before mPEG-Mal-5K modification): 0.85 ± 0.09
C179 stoichiometry, Before modification (xlσ1R-C179; [4]): 0.787 and 0.943 and 0.756 and 0.907
C179 stoichiometry, After modification (xlσ1R-C179; [3]): 0.4808
C179 stoichiometry, After modification (xlσ1R-C179; [4]): 0.399 and 0.462 and 0.576 and 0.486
blockade percentage (reduction of available binding sites) (xlσ1R-C179; after mPEG-Mal-5K modification): ~ 44%
number of available binding sites per protomer (stoichiometry) (xlσ1R-C203; ITC, after mPEG-Mal-5K modification): 0.69 ± 0.04
number of available binding sites per protomer (stoichiometry) (xlσ1R-C203; ITC, before mPEG-Mal-5K modification): 0.87 ± 0.01
C203 stoichiometry, Before modification (xlσ1R-C203; [5]): 0.883 and 0.859 and 0.873
C203 stoichiometry, After modification (xlσ1R-C203; ITC, Mean of repeats (source data Fig. 4e)): 0.6895
C203 stoichiometry, After modification (xlσ1R-C203; [5]): 0.635 and 0.734 and 0.712 and 0.677
blockade percentage (reduction of available binding sites) (xlσ1R-C203; after mPEG-Mal-5K modification): ~ 21%
